Results: patent US20260042731A1, “(2,4-DICHLOROPHENOXY)ACETIC ACID ANALOGS” (CORTEVA AGRISCIENCE LLC, priority 2022, published 2026)
Where two headings read alike, the source gives them in different places.

Tests used:
[1] = tested on: Amaranthus rudis (AMATA), tall water hemp; assay: Postemergence herbicide evaluation, growth of Amaranthus rudis (AMATA); type: in vivo; conditions: Amaranthus tuberculatus, post-emergence, percent reduction in plant size relative to untreated control, read-out: Ave. AMATA; for pest or weed control at 280 g/ha: 280 g ae/ha; for pest or weed control at 560 g/ha: 560 g ae/ha
[2] = Volatility of compounds measured by thermogravimetric analysis (TGA); type: physicochemical
[3] = tested on: weeds (ABUTH, AMATA, AMBEL, CHEAL, ERICA); assay: Postemergence herbicide evaluation, overall average % weed control across ABUTH, AMATA, AMBEL, CHEAL, ERICA; type: in vivo; conditions: post-emergence, average over the five weeds, read-out: Overall Ave % Weed Control; for pest or weed control at 280 g/ha: 280 g ae/ha; for pest or weed control at 560 g/ha: 560 g ae/ha
[4] = tested on: Ambrosia artemisiifolia (AMBEL), common ragweed; assay: Postemergence herbicide evaluation, growth of Ambrosia artemisiifolia (AMBEL); type: in vivo; conditions: Ambrosia artemisiifolia, post-emergence, percent reduction in plant size relative to untreated control, read-out: AVE. AMBEL; for pest or weed control at 280 g/ha: 280 g ae/ha; for pest or weed control at 560 g/ha: 560 g ae/ha
[5] = tested on: Abutilon theophrasti (ABUTH), velvetleaf; assay: Postemergence herbicide evaluation, growth of Abutilon theophrasti (ABUTH); type: in vivo; conditions: Abutilon theophrasti, post-emergence, percent reduction in plant size relative to untreated control, read-out: AVE. ABUTH; for pest or weed control at 280 g/ha: 280 g ae/ha; for pest or weed control at 560 g/ha: 560 g ae/ha
[6] = tested on: Chenopodium album (CHEAL), common lambsquarters; assay: Postemergence herbicide evaluation, growth of Chenopodium album (CHEAL); type: in vivo; conditions: Chenopodium album, post-emergence, percent reduction in plant size relative to untreated control, read-out: Ave. CHEAL; for pest or weed control at 280 g/ha: 280 g ae/ha; for pest or weed control at 560 g/ha: 560 g ae/ha
[7] = tested on: glyphosate resistant Conyza canadensis (L.) (ERICA), horseweed; assay: Postemergence herbicide evaluation, growth of Conyza canadensis (ERICA); type: in vivo; conditions: Erigeron canadensis, post-emergence, percent reduction in plant size relative to untreated control, read-out: Ave. ERICA; for pest or weed control at 280 g/ha: 280 g ae/ha; for pest or weed control at 560 g/ha: 560 g ae/ha

With C/C(C/C(C)=N/OC(=O)COc1ccc(Cl)cc1Cl)=N\OC(=O)COc1ccc(Cl)cc1Cl [Compound B6, (2,4)-Pentane-2,4-dione O,O-di(2-(2,4-dichlorophenoxy)acetyl) dioxime] as the compound, how does the pest or weed control at 280 g/ha ([1]; 168 h, 7 DAA) read?
The pest or weed control at 280 g/ha was 75%.

What about the pest or weed control at 560 g/ha ([1]; 168 h, 7 DAA) of the same compound?
The pest or weed control at 560 g/ha was 73%.

What about the pest or weed control at 280 g/ha ([1]; 336 h, 14 DAA) of the same compound?
The pest or weed control at 280 g/ha was 75%.

What about the pest or weed control at 560 g/ha ([1]; 336 h, 14 DAA) of the same compound?
Its pest or weed control at 560 g/ha is 80%.

What about the pest or weed control at 280 g/ha ([1]; 504 h, 21 DAA) of the same compound?
The pest or weed control at 280 g/ha was 75%.

And the pest or weed control at 560 g/ha ([1]; 504 h, 21 DAA)?
Its pest or weed control at 560 g/ha is 83%.

And the “TGA Data (rate of weight loss, volatility)” value [2]?
Its value is 3.7 µg/min.

What about the pest or weed control at 280 g/ha ([3]; 168 h, 7 DAA) of the same compound?
The pest or weed control at 280 g/ha was 72%.

And the pest or weed control at 560 g/ha ([3]; 168 h, 7 DAA)?
The pest or weed control at 560 g/ha was 74%.

And the pest or weed control at 280 g/ha ([3]; 336 h, 14 DAA)?
The pest or weed control at 280 g/ha was 88%.

And the pest or weed control at 560 g/ha ([3]; 336 h, 14 DAA)?
The pest or weed control at 560 g/ha was 85%.

And the pest or weed control at 280 g/ha ([3]; 504 h, 21 DAA)?
Its pest or weed control at 280 g/ha is 91%.

What about the pest or weed control at 560 g/ha ([3]; 504 h, 21 DAA) of the same compound?
The pest or weed control at 560 g/ha was 89%.

And the pest or weed control at 280 g/ha ([4]; 168 h, 7 DAA)?
Its pest or weed control at 280 g/ha is 68%.

And the pest or weed control at 560 g/ha ([4]; 168 h, 7 DAA)?
Its pest or weed control at 560 g/ha is 70%.

What about the pest or weed control at 280 g/ha ([4]; 336 h, 14 DAA) of the same compound?
The pest or weed control at 280 g/ha was 93%.

What about the pest or weed control at 560 g/ha ([4]; 336 h, 14 DAA) of the same compound?
Its pest or weed control at 560 g/ha is 93%.

What about the pest or weed control at 280 g/ha ([4]; 504 h, 21 DAA) of the same compound?
Its pest or weed control at 280 g/ha is 96%.

What about the pest or weed control at 560 g/ha ([4]; 504 h, 21 DAA) of the same compound?
The pest or weed control at 560 g/ha was 100%.

And the pest or weed control at 280 g/ha ([5]; 168 h, 7 DAA)?
Its pest or weed control at 280 g/ha is 78%.

What about the pest or weed control at 560 g/ha ([5]; 168 h, 7 DAA) of the same compound?
Its pest or weed control at 560 g/ha is 83%.

And the pest or weed control at 280 g/ha ([5]; 336 h, 14 DAA)?
The pest or weed control at 280 g/ha was 90%.

What about the pest or weed control at 560 g/ha ([5]; 336 h, 14 DAA) of the same compound?
Its pest or weed control at 560 g/ha is 86%.

What about the pest or weed control at 280 g/ha ([5]; 504 h, 21 DAA) of the same compound?
The pest or weed control at 280 g/ha was 92%.

What about the pest or weed control at 560 g/ha ([5]; 504 h, 21 DAA) of the same compound?
Its pest or weed control at 560 g/ha is 89%.

What about the pest or weed control at 280 g/ha ([6]; 168 h, 7 DAA) of the same compound?
Its pest or weed control at 280 g/ha is 70%.

What about the pest or weed control at 560 g/ha ([6]; 168 h, 7 DAA) of the same compound?
The pest or weed control at 560 g/ha was 70%.

What about the pest or weed control at 280 g/ha ([6]; 336 h, 14 DAA) of the same compound?
Its pest or weed control at 280 g/ha is 88%.

And the pest or weed control at 560 g/ha ([6]; 336 h, 14 DAA)?
Its pest or weed control at 560 g/ha is 78%.

And the pest or weed control at 280 g/ha ([6]; 504 h, 21 DAA)?
The pest or weed control at 280 g/ha was 93%.

What about the pest or weed control at 560 g/ha ([6]; 504 h, 21 DAA) of the same compound?
The pest or weed control at 560 g/ha was 75%.

What about the pest or weed control at 280 g/ha ([7]; 168 h, 7 DAA) of the same compound?
The pest or weed control at 280 g/ha was 68%.

What about the pest or weed control at 560 g/ha ([7]; 168 h, 7 DAA) of the same compound?
Its pest or weed control at 560 g/ha is 75%.

What about the pest or weed control at 280 g/ha ([7]; 336 h, 14 DAA) of the same compound?
Its pest or weed control at 280 g/ha is 93%.

What about the pest or weed control at 560 g/ha ([7]; 336 h, 14 DAA) of the same compound?
The pest or weed control at 560 g/ha was 88%.

What about the pest or weed control at 280 g/ha ([7]; 504 h, 21 DAA) of the same compound?
Its pest or weed control at 280 g/ha is 98%.

And the pest or weed control at 560 g/ha ([7]; 504 h, 21 DAA)?
Its pest or weed control at 560 g/ha is 99%.
